Experimental data published in article PMC5642145, “Impact of the structures of macrocyclic Michael acceptors on covalent proteasome inhibition” (Chemical Science, 2017).
Where two headings read alike, the source gives them in different places.

Legend:
[1] = molecular target: T1, β5 subunit of the human constitutive 20S proteasome (Homo sapiens, UniProt P20618+P28074); experiment: In vitro β5 proteasome inhibitory activity and kinetic constants (Suc-LLVY-AMC, chymotrypsin-like activity); format: biochemical; conditions: for K′i (apparent β5 subunit inhibitory activity): human erythrocyte 20S proteasome, chymotrypsin-like activity, 37 °C; for kinact/KI: read-out: k assoc (k2/Ki)
T1 construct: human erythrocyte 20S; purchased R&D Systems, Inc; host or cells: human erythrocytes (native, purified from tissue)
Text: First, the effect of modifying the macrocycle was investigated for 1–3 by analyzing the inhibitory activity of the β5 subunit of the human constitutive 20S proteasome. […] The k 2/K i ratio represents the second-order rate constant for the reaction of the inhibitor with the target (k assoc), and it indicates the overall inhibitory potency of the inhibitor.
4) Evaluation of in vitro β5 proteasome inhibitory activity and determination of kinetic […]
In vitro proteasome inhibitory activity was measured on 96-well microtiter plates using human erythrocyte 20S proteasome (R&D Systems, Inc.) with the AK-740 Assay Kit for Drug Discovery (Biomol). Reactions were performed at 37 °C in 100 μ L volu mes containing a serial dilution of test samples, 2 μ g/mL 20S proteasome, and 100 μM Suc-L LV Y -AMC for assaying chymotrypsin-like activity, according to the manufacture’s instructions.
Fluorescence was monitored with an infinite M200 microplate reader (Tecan) equipped with 360 nm excitation and […]
The observed rate constant for inhibition, kobs, at each concentration was determined fro m the slope of a semi-logarithmic plot of inhibition versus […]
equation, k obs = k 2[I]/(K i+[I]), to obtain values for Ki and k2. The k2/Ki ratio represents the second -order rate constant for the reaction of the inhibitor with the target. S7)

[2] = tested on: human myeloma Amo-1 cells; experiment: Anti-proliferation activity against Amo-1 cells (CCK-8); format: cell-based
Method: 5) Evaluation of anti -proliferation activity against Amo- 1cells
Cell proliferation assays were performed using the Cell Counting Kit-8 (CCK-8) (Dojindo, CK04) according to the manufacturer’s protocol. In brief, Amo- 1 cells were cultured in RPMI1640 medium containing 10% FBS and 1% penicillin -strepto myc in.
After culturing for 24 h at 37 °C under atmosphere of 5% CO2, the cells were treated with a solution of the compound in DMSO (1 µL) at 37 °C for 72 h. A solution of the CCK-8 (10 µL) was then added to each well and the cells were incubated at 37 °C for 3 h. The absorbance at 450 nm was measured using an Infinite M200 PRO multimode microplate reader (Tecan). The data points were calculated from the average (±standard deviation) of three assays […]
(IC 50) were calculated from curves constructed by plotting cell proliferation (%) versus the log of compound […]
(1 picture or pasted object on this page, not shown here)

[3] = from fit kobs = k2[I]/(Ki + [I])
[4] = second-order rate constant, k2/Ki ratio
[5] = AMO1, Amo-1 cells, 72 h, CCK-8, read-out: IC50 (cell proliferation)

Row | k 2 [1, 3] | K′i (apparent β5 subunit inhibitory activity) [1] | Ki [1, 3] | kinact/KI [1, 4] | SMILES | further results
1 | 0.00551 s⁻¹ | 20.6 nM | 432 nM | 12800 M⁻¹ s⁻¹ | CCCCCCCCCC(=O)N[C@@H](Cc1ccccc1)C(=O)N[C@H]1/C=C/CNC(=O)/C=C/[C@H](C(C)C)NC1=O [analogue 8] | K i, decrease in affinity relative to 4 ([1]; decrease relative to 4): 6.3 fold; k 2 relative to 4 ([1]; greater than that of the 12-membered 4): 1.29 fold; IC50 [2, 5]: 26.3 ± 9.3 nM
2 | 0.00365 s⁻¹ | 48.2 nM | 547 nM | 6670 M⁻¹ s⁻¹ | CCCCCCCCCC(=O)N[C@@H](Cc1ccccc1)C(=O)N[C@H]1CCCNC(=O)/C=C/[C@H](C(C)C)NC1=O [analogue 9] | 
3 | 0.00134 s⁻¹ | 79.2 nM | 527 nM | 2550 M⁻¹ s⁻¹ | CCCCCCCCCC(=O)N[C@@H](Cc1ccccc1)C(=O)N[C@H]1CC/C=C/CNC(=O)/C=C/[C@H](C(C)C)NC1=O [analogue 10] | 
4 | 0.000875 s⁻¹ | 320 nM | 1230 nM | 713 M⁻¹ s⁻¹ | CCCCCCCCCC(=O)N[C@@H](Cc1ccccc1)C(=O)N[C@H]1C/C=C/CCNC(=O)/C=C/[C@H](C(C)C)NC1=O [analogue 11] | 

The next lines start with the compound.

Row | SMILES | k 2 [1, 3] | K′i (apparent β5 subunit inhibitory activity) [1] | Ki [1, 3] | kinact/KI [1, 4] | further results
5 | CC(C)[C@H](NC(=O)N[C@H](C(=O)N[C@H]1C/C=C/CNC(=O)/C=C/[C@H](C(C)C)NC1=O)C(C)C)C(=O)O [Isosyringolin A (3), Isosyringolin A] | 0.00339 s⁻¹ | 590 nM |  |  | kinact/KI [1]: 166 M⁻¹ s⁻¹
6 | CC(C)[C@H](NC(=O)N[C@H](C(=O)N[C@H]1/C=C/CCNC(=O)/C=C/[C@H](C(C)C)NC1=O)C(C)C)C(=O)O [Syringolin A (1), Syringolin A, reference compound] | 0.00391 s⁻¹ | 170 nM |  |  | k 2 ([1]; as printed in text in s^–1): 3.91 × 10^–3 s^–1; kinact/KI [1]: 1770 M⁻¹ s⁻¹
7 | CCCCCCCCCC(=O)N[C@@H](Cc1ccccc1)C(=O)N[C@H]1/C=C/CCNC(=O)/C=C/[C@H](C(C)C)NC1=O [analogue 4] |  |  |  |  | IC50 ([2]; AMO1, 72 h, read-out: IC50 (cell proliferation)): 4.33 ± 1.6 nM
8 | CCCCCCCCCC(=O)N[C@@H](Cc1ccccc1)C(=O)N[C@H]1CCCCCNC(=O)/C=C/[C@H](C(C)C)NC1=O [analogue 12] | 0.00203 s⁻¹ | 402 nM | 9090 nM | 224 M⁻¹ s⁻¹ | 
9 | C=CC[C@H](NC(=O)[C@H](Cc1ccccc1)NC(=O)CCCCCCCCC)C(=O)N[C@H](/C=C/C(=O)NC)C(C)C [analogue 13] |  | >1000 nM |  |  | inhibitory activity ([1]; β5 subunit): no inhibitory activity
10 | CCCCCCCCCC(=O)N[C@@H](Cc1ccc(-c2ccccc2)cc1)C(=O)N[C@H]1/C=C/CNC(=O)/C=C/[C@H](C(C)C)NC1=O [analogue 14] | 0.00428 s⁻¹ | 0.77 nM | 42.2 nM | 101000 M⁻¹ s⁻¹ | k assoc (k2/Ki) [1, 4]: 101422 s^–1 M^–1; IC50 [2, 5]: 12.1 nM
